Source: paper PMC10892288, “Early Stage Preclinical Formulation Strategies to Alter the Pharmacokinetic Profile of Two Small Molecule Therapeutics” (Pharmaceuticals, 2024)
In brackets after ≈: the same amount, converted by molar mass.

Assays:
[1] = Mouse PK of G7883, SC in sunflower oil; format: in vivo
Protocol: was screened in different oil vehicles including corn, coconut, paraffin, soybean, and sunflower oil. […] For subcutaneous administrations, […] was formulated in sunflower oil as a suspension and dosed at 250 mg/kg with a dosing volume of 5 mL/kg. Food and water were available ad libitum to animals. Blood samples were collected post-dose into tubes containing K2EDTA as an anticoagulant. Samples were taken from three different animals at each time point. After the blood was mixed with K2EDTA, the samples were stored at -80 °C until analysis. All plasma and cell media concentrations of […] and […] were determined using liquid chromatography-tandem mass spectrometry after protein precipitation with acetonitrile and injection of the supernatant onto the column (Waters ACQUITY UPLC BEH C18 1.7 μm, 2.1 × 50 mm for […] and […]). The aqueous mobile phase was 0.1% formic acid, 2 mM ammonium formate in water/acetonitrile (v:v, 95:5), and the organic mobile phase was 0.1% formic acid, 2 mM ammonium formate in acetonitrile/water (v:v, 95:5). An AB Sciex API 4000 Triple Quad instrument was used for detecting […] and […] (Figure S2). The electrospray ionization source in both columns was operated in the positive ion and multiple reaction monitoring (MRM) detection modes. The MRM transitions for […] and […] were m/z 462.2 (Q1) and 253.10 (Q3) and m/z 454.2 (Q1) and 325.9 (Q3), respectively. The dynamic range of both assays was 0.50-50.0 ng/mL, and the total run time was 1.6 min. The lower limit of quantitation of the assay was […], and the dilution quality control concentration was set at 10 ng/mL with acceptance criteria for accuracy and precision of 25%. All plasma and cell media concentrations of […] were determined using liquid chromatography-tandem mass spectrometry after protein precipitation with acetonitrile and injection of the supernatant onto the column (Phenomenex Kinetex XB-C18, 30 × 2.1 mm, 2.6 μm). The aqueous mobile phase was 10 mM of ammonium formate in water, and the organic mobile phase was 0.1% formic acid in acetonitrile. An AB Sciex API 5500 Triple Quad instrument was used for detecting […]. The electrospray ionization source in both columns was operated in the positive ion and MRM detection modes. The MRM transitions for […] were m/z 462.2 (Q1) and 253.10 (Q3), respectively. The dynamic range of the assay was 0.50-50.0 ng/mL, and the total run time was 2 min. The lower limit of quantitation of the assay was […], and the dilution quality control concentration was set at 10 ng/mL with acceptance criteria for accuracy and precision of 25%.

[2] = pKa (physiochemical properties); format: physicochemical
Description: Table 1 Physiochemical properties of […] and […]. | column: […]; […]

[3] = Body weight change in multiday IP study; format: in vivo; conditions: IP 150 mpk BID, study spanning over 10 days, mice
[4] = Water solubility (physiochemical properties); format: physicochemical; conditions: water
[5] = Permeability (physiochemical properties); format: in vitro ADME
[6] = SC 250 mpk sunflower oil compared with PO 250 mpk
[7] = plasma, 250 mg/kg, SC 250 mpk, sunflower oil suspension, mean ± SD

For `Cc1nccnc1-c1nn2c(=O)cc(-c3ccc(C4CCCCC4)cc3)[nH]c2c1C(=O)N1CC(CF)C1` [G7883, 5-(4-cyclohexylphenyl)-3-[3-(fluoromethyl)azetidine-1-carbonyl]-2-(3-methylpyrazin-2-yl)-4H-pyrazolo[1,5-a]pyrimidin-7-one], the “reduction of Cmax, SC versus IP” value ([1]; SC 250 mpk compared with IP 150 mpk) was “approximately 4 fold”, the “half-life extension, SC versus PO” value [1, 6] was 2.5 fold and the “increase of AUC, SC oil formulation versus oral” value [1, 6] was “more than 5 fold”. It also gave an F ([1]; SC 250 mpk, sunflower oil suspension, mean ± SD, 250 mg/kg) of 46.4 ± 13.2%, an AUC(0-t) [1, 7] of 137 ± 51.1 µM·h and a Cmax [1, 7] of 16.7 ± 12 µM. It also gave a Tmax [1, 7] of 2.67 ± 1.15 h, a half-life [1, 7] of 6.94 ± 2.93 h and a bioavailability ([1]; plasma, sc, 250 mg/kg, SC 250 mpk, sunflower oil suspension, mean ± SD) of 46%. For the same compound, the pKa [2] was 5.51, the body weight change [3] was “significant decreases in the body weights of mice were observed” and the solubility [4] was 85 µg/mL (≈ 170 µM). For the same compound, the “permeability (in words)” value [5] was “moderate permeability” and the Papp ([5]; not told) was 5.79 ×10⁻⁶ cm/s.
